From patent publication US20220257550A1, “REDUCING THE VIRAL ACTIVITY OF ELAFIBRANOR WITH RIBOFLAVIN OR DHA” (priority 2019, published 2022)

System: Phage T4
Experiment: Phage T4 titer in liquid culture of E. coli followed by plaque assay on agar plates (PFU)
Type: cell-based, bacteriophage T4 / E. coli 613
Details: compounds 0.02 mg/ml (each), vs untreated control, FIG. 1
Protocol: (§1) The number of phage particles (PFU) is given. Experiment were done in triplicate.
as §1
Nutritional Products Ltd (Kaiseraugst, Switzerland). All stock solutions were in 20 mg/ml DMSO. All compounds were used at a final concentration of 0.02 mg/ml.
E. coli was grown in liquid LB (lysogeny broth) medium. […] The number of phage particles (PFU) was determined by plating on agar.

Compound	phage T4 PFU (number of phage particles) (MOI of 0.01, 3 hours at 30° C.)	phage T4 PFU (number of phage particles) (MOI of 100/1)
Cc1cc2nc3c(=O)[nH]c(=O)nc-3n(C[C@H](O)[C@H](O)[C@H](O)CO)c2cc1C [Riboflavin]	decreased	decreased
CSc1ccc(C(=O)/C=C/c2cc(C)c(OC(C)(C)C(=O)O)c(C)c2)cc1 [elafibranor, Elafibranor]	significantly increased	significantly increased
